The experiment relates to L1210 leukemia ip in BDF1 mice, survival T/C. Nature of the experiment: NCI In Vivo Anticancer Drug Screen. Data for tumor model L1210 Leukemia (intraperitoneal) in B6D2F1 (BDF1) mice. The conditions noted are these: endpoint: mean survival time, higher = longer survival. The gist of the method: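 Tumor cells were implanted, animals were treated, and survival was followed. The result divides the treated measurement by the vehicle-control measurement.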

The mark [1] stands for this setting: dose: 100.0 mg/kg/injection, schedule: Q01DX001 (ip), vehicle: saline.
[2] abbreviates: dose: 200.0 mg/kg/injection, schedule: Q01DX001 (ip), vehicle: saline.
[3] abbreviates: dose: 400.0 mg/kg/injection, schedule: Q01DX001 (ip), vehicle: saline.
[4] abbreviates: dose: 200.0 mg/kg/injection, schedule: Q01DX009 (ip), vehicle: Klucel (hydroxypropylcellulose) (HPC).
Where [5] appears, read: dose: 100.0 mg/kg/injection, schedule: Q01DX009 (ip), vehicle: Klucel (hydroxypropylcellulose) (HPC).
[6] abbreviates: dose: 100.0 mg/kg/injection, schedule: Q04DX003 (ip), vehicle: Klucel (hydroxypropylcellulose) (HPC).
Setting [7] is: dose: 200.0 mg/kg/injection, schedule: Q04DX003 (ip), vehicle: Klucel (hydroxypropylcellulose) (HPC).
Where [8] appears, read: dose: 400.0 mg/kg/injection, schedule: Q04DX003 (ip), vehicle: Klucel (hydroxypropylcellulose) (HPC).
Where [9] appears, read: dose: 400.0 mg/kg/injection, schedule: Q01DX009 (ip), vehicle: Klucel (hydroxypropylcellulose) (HPC).
The mark [10] stands for this setting: dose: 100.0 mg/kg/injection, schedule: Q01DX001 (ip), vehicle: carboxymethylcellulose (CMC).
The mark [11] stands for this setting: dose: 200.0 mg/kg/injection, schedule: Q01DX001 (ip), vehicle: carboxymethylcellulose (CMC).
Setting [12] is: dose: 400.0 mg/kg/injection, schedule: Q01DX001 (ip), vehicle: carboxymethylcellulose (CMC).

Several values for one entry are separate records, joined by “and”; a condition that tells them apart may be missing. Equal entries are not always repeated. Inconclusive results and toxic doses are left out.

As for `[Cl][Sn]([c]1ccccc1)([c]1ccccc1)[c]1ccccc1`, the T/C was 89 % of control (dose: 2.5 mg/kg/injection, schedule: Q01DX009 (ip), vehicle: Klucel (hydroxypropylcellulose) (HPC)); 95 % of control (dose: 5.0 mg/kg/injection, schedule: Q01DX001 (ip), vehicle: saline); 97 % of control and 106 % of control (dose: 5.0 mg/kg/injection, schedule: Q01DX009 (ip), vehicle: Klucel (hydroxypropylcellulose) (HPC)); 95 % of control (dose: 5.0 mg/kg/injection, schedule: Q04DX003 (ip), vehicle: Klucel (hydroxypropylcellulose) (HPC)); 101 % of control (dose: 10.0 mg/kg/injection, schedule: Q01DX001 (ip), vehicle: saline); 90 % of control (dose: 10.0 mg/kg/injection, schedule: Q04DX003 (ip), vehicle: Klucel (hydroxypropylcellulose) (HPC)). The T/C by setting is: (dose: 20.0 mg/kg/injection, schedule: Q01DX001 (ip), vehicle: saline) 95 % of control; (dose: 40.0 mg/kg/injection, schedule: Q01DX001 (ip), vehicle: saline) 91 % of control.

On to `O=C(NC1CCCCC1)C(=O)NC1CCCCC1`, for which the T/C reads like this: (dose: 50.0 mg/kg/injection, schedule: Q01DX001 (ip), vehicle: saline) 102 % of control; under setting [1], 98 % of control; (dose: 100.0 mg/kg/injection, schedule: Q04DX002 (ip), vehicle: Klucel (hydroxypropylcellulose) (HPC)) 89 % of control; under setting [2], 98 % of control; (dose: 200.0 mg/kg/injection, schedule: Q04DX002 (ip), vehicle: Klucel (hydroxypropylcellulose) (HPC)) 95 % of control; under setting [3], 96 % of control. Further, the T/C (dose: 400.0 mg/kg/injection, schedule: Q04DX002 (ip), vehicle: Klucel (hydroxypropylcellulose) (HPC)) was 103 % of control.

With `Nc1nc(N)c2nc(CNc3ccc(S(=O)(=O)NC(CCC(=O)O)C(=O)O)cc3)cnc2n1` (stereo not drawn), the T/C was 114 % of control (dose: 20.0 mg/kg/injection, schedule: Q01DX009 (ip), vehicle: Klucel (hydroxypropylcellulose) (HPC)); 119 % of control (dose: 40.0 mg/kg/injection, schedule: Q01DX009 (ip), vehicle: Klucel (hydroxypropylcellulose) (HPC)); 124 % of control (dose: 80.0 mg/kg/injection, schedule: Q01DX009 (ip), vehicle: Klucel (hydroxypropylcellulose) (HPC)); 120 % of control under setting [4].

In the case of `[Cl][Hg][c]1ccccc1N=Nc1ccccc1`, the T/C was 90 % of control (dose: 3.0 mg/kg/injection, schedule: Q01DX009 (ip), vehicle: saline with Tween-80); 101 % of control (dose: 6.0 mg/kg/injection, schedule: Q01DX009 (ip), vehicle: saline with Tween-80); 98 % of control (dose: 12.0 mg/kg/injection, schedule: Q01DX009 (ip), vehicle: saline with Tween-80); 100 % of control (dose: 12.5 mg/kg/injection, schedule: Q01DX009 (ip), vehicle: saline with Tween-80).

In the case of `O=C(O)c1c(Cl)c(Cl)c(Cl)c(Cl)c1C(=O)Nc1cccc(C(F)(F)F)c1`, the T/C was 100 % of control under setting [5]; 94 % of control under setting [6]; 97 % of control under setting [4]; 100 % of control under setting [7]; 105 % of control under setting [8].

With `O=C(Nc1cc(NC(=O)Nc2cccc(C3=NCCN3)c2)cc(C(=O)Nc2ccccc2)c1)Nc1cccc(C2=NCCN2)c1`, the T/C was 94 % of control (dose: 15.0 mg/kg/injection, schedule: Q01DX Z (ip), vehicle: carboxymethylcellulose (CMC)); 103 % of control (dose: 30.0 mg/kg/injection, schedule: Q01DX Z (ip), vehicle: carboxymethylcellulose (CMC)); 97 % of control (dose: 60.0 mg/kg/injection, schedule: Q01DX Z (ip), vehicle: carboxymethylcellulose (CMC)); 107 % of control and 91 % of control (dose: 120.0 mg/kg/injection, schedule: Q01DX Z (ip), vehicle: carboxymethylcellulose (CMC)); 104 % of control (dose: 240.0 mg/kg/injection, schedule: Q01DX Z (ip), vehicle: carboxymethylcellulose (CMC)).

In the case of `CSCc1ccc([N+](=O)[O-])cc1`, the T/C is 103 % of control under setting [5]; 101 % of control under setting [6]; 103 % of control under setting [4]; 106 % of control under setting [7]; 116 % of control under setting [9]; 95 % of control under setting [8].

As to `CC12C=CC3(CCC4C(C)(C)C(O)C(=O)CC4(C)C3CC1=O)C2` (stereo not drawn), the T/C is, setting by setting: under setting [5], 105 % of control; under setting [6], 101 % of control; under setting [4], 97 % of control; under setting [7], 101 % of control; under setting [9], 107 % of control; under setting [8], 98 % of control.

In the case of `O=C(O)c1cccc2c1C(=O)c1ccccc1-2`, the T/C was 93 % of control (dose: 100.0 mg/kg/injection, schedule: Q01DX001 (ip), vehicle: Klucel (hydroxypropylcellulose) (HPC)); 106 % of control (dose: 200.0 mg/kg/injection, schedule: Q01DX001 (ip), vehicle: Klucel (hydroxypropylcellulose) (HPC)); 101 % of control (dose: 400.0 mg/kg/injection, schedule: Q01DX001 (ip), vehicle: Klucel (hydroxypropylcellulose) (HPC)).

As to `O=[N+]([O-])c1ccc(O)c(/C=N/Nc2c3ccccc3nc3ccccc23)c1`, the T/C reads like this: under setting [1], 103 % of control; under setting [2], 95 % of control; under setting [3], 92 % of control.

As for `CCCC(C)OC(=O)Nc1cccc(OC(=O)NC)c1` (stereo not drawn), the T/C (dose: 100.0 mg/kg/injection, schedule: Q04DX003 (ip), vehicle: saline with Tween-80) was 102 % of control; the T/C (dose: 200.0 mg/kg/injection, schedule: Q04DX003 (ip), vehicle: saline with Tween-80) is 98 % of control; the T/C (dose: 400.0 mg/kg/injection, schedule: Q04DX003 (ip), vehicle: saline with Tween-80) was 101 % of control.

Regarding `NC1=NC(=O)/C(=C/c2ccccc2)S1`, the T/C is 100 % of control under setting [10]; 90 % of control (dose: 100.0 mg/kg/injection, schedule: Q01DX009 (ip), vehicle: saline with Tween-80); 89 % of control under setting [11]; 91 % of control (dose: 200.0 mg/kg/injection, schedule: Q01DX009 (ip), vehicle: saline with Tween-80); 86 % of control under setting [12].

Consider `CS(=O)(=O)Oc1c(Cl)cc(Cl)cc1Sc1cc(Cl)cc(Cl)c1OS(C)(=O)=O`, for which the T/C by setting is: under setting [10], 95 % of control; under setting [11], 104 % of control; under setting [12], 101 % of control.

For `CN1CCN(c2ccccc2)CC1`, the T/C runs as follows: (dose: 25.0 mg/kg/injection, schedule: Q01DX001 (ip), vehicle: saline with Tween-80) 168 % of control; (dose: 50.0 mg/kg/injection, schedule: Q01DX001 (ip), vehicle: saline with Tween-80) 98 % of control; (dose: 100.0 mg/kg/injection, schedule: Q01DX001 (ip), vehicle: saline with Tween-80) 196 % of control.

As for `C/C(=N\[N+](C)(C)C)c1cccc(C)n1`, the T/C by setting is: (dose: 25.0 mg/kg/injection, schedule: Q01DX009 (ip), vehicle: saline) 97 % of control; (dose: 25.0 mg/kg/injection, schedule: Q04DX003 (ip), vehicle: saline) 107 % of control; (dose: 50.0 mg/kg/injection, schedule: Q01DX009 (ip), vehicle: saline) 105 % of control; (dose: 50.0 mg/kg/injection, schedule: Q04DX003 (ip), vehicle: saline) 102 % of control; under setting [1], 103 % of control; (dose: 100.0 mg/kg/injection, schedule: Q01DX009 (ip), vehicle: saline) 100 % of control. For the same compound, the T/C (dose: 100.0 mg/kg/injection, schedule: Q04DX003 (ip), vehicle: saline) is 100 % of control.

Regarding `C=CCO[Si](OCC=C)(OCC=C)OCC=C`, the T/C is 101 % of control (dose: 75.0 mg/kg/injection, schedule: Q01DX001 (ip), vehicle: other) and 98 % of control (dose: 150.0 mg/kg/injection, schedule: Q01DX001 (ip), vehicle: other).

As for `FC(F)(F)c1ccc(Cl)c(NC2=NCCCS2)c1`, the T/C was 107 % of control (dose: 10.0 mg/kg/injection, schedule: Q01DX009 (ip), vehicle: saline); 97 % of control (dose: 20.0 mg/kg/injection, schedule: Q01DX009 (ip), vehicle: saline); 96 % of control (dose: 40.0 mg/kg/injection, schedule: Q01DX009 (ip), vehicle: saline); 95 % of control (dose: 75.0 mg/kg/injection, schedule: Q01DX009 (ip), vehicle: saline); 96 % of control under setting [5]; 97 % of control under setting [6]. The T/C under setting [4] was 97 % of control, the T/C under setting [7] is 95 % of control and the T/C under setting [8] was 94 % of control.
